Where two headings read alike, the source gives them in different places.
Columns and labels:
[1] = tested on: SOS1; conditions: cited from earlier work; for IC50: read-out: Actual IC50
[2] = molecular target: T1, KRAS G12C/SOS1 (Homo sapiens, UniProt Q07889); experiment: KRAS G12C/SOS1 PPI homogeneous time-resolved fluorescence (HTRF) assay; assay type: binding; conditions: for inhibition at 25 µg/mL: read-out: Inhibition rate at 25 μg mL^−1 (%); for inhibition at 0.5 µg/mL / inhibition at 10 µg/mL / inhibition at 40 µg/mL / inhibition at 50 µg/mL: read-out: Inhibition rate (%)
T1 construct: purchased Cytoskeleton (SOS1); AntibodySystem (KRAS G12C)
T1 sequence (Q07889 564-1049 limits assumed): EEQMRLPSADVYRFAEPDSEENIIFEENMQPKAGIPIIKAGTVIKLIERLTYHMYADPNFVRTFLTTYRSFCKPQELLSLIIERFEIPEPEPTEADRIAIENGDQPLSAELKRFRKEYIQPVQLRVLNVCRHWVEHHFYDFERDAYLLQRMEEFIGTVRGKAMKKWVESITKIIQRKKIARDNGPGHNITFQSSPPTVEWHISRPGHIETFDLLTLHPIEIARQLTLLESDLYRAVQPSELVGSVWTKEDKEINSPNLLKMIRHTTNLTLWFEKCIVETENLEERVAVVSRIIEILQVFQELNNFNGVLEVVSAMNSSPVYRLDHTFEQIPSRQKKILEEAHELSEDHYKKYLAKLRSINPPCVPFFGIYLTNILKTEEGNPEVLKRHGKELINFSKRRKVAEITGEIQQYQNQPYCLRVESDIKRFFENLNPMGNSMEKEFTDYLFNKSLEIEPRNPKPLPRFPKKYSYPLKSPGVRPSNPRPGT
Method: All the test compounds were provided by the CNCL (https://www.cncl.org.cn/). […] The percentage inhibition was calculated by comparison with the buffer control group. The IC50 value was calculated by GraphPad Prism software in inhibitor versus normalized response (variable slope) mode.

[3] = 10% reserved data (Table S3), ref ChEMBL database (version 31)
[4] = converted from μg mL^−1, read-out: IC50 calculated using the molecular weight of each compound
[5] = dose-response 0.5–50 μg mL^−1, read-out: IC50 (μg mL^−1)

COc1cc2nc(C)nc(N[C@H](C)c3cc(N)cc(C(F)(F)F)c3)c2cc1O[C@H]1CCN(C(C)=O)C1 [CHEMBL4435672]
Actual pChEMBL [1, 3]: 8.52

Cc1nc(N[C@H](C)c2cc(N)cc(C(F)(F)F)c2C)c2cc(C3CCS(=O)(=O)CC3)ccc2n1 [CHEMBL4441820]
Actual pChEMBL [1, 3]: 8.40

Cc1cccc([C@@H](C)Nc2nc(C)nc3ccc(C4CCS(=O)(=O)CC4)cc23)c1 [CHEMBL4443395]
Actual pChEMBL [1, 3]: 7.54

COCC(=O)N1CCC(c2cc3c(N[C@H](C)c4cccc(C)c4)nc(C)nc3cc2C)CC1 [CHEMBL4448274]
Actual pChEMBL [1, 3]: 7.47

COc1cc2nc(C)nc(N[C@H](C)c3cc(N)cc(C(F)(F)F)c3)c2cc1C1CCC(C(=O)N2CCOCC2)CC1 (some centres unmarked) [CHEMBL4451252]
Actual pChEMBL [1, 3]: 7.60

COc1cc2nc(C)nc(N[C@H](C)c3cccc(C(F)(F)F)c3)c2cc1-c1ccc(C(=O)N(C)CCO)cc1 [CHEMBL4453639]
Actual pChEMBL [1, 3]: 7.40

COc1cc2nc(C)nc(N[C@H](C)c3cccc(C)c3)c2cc1-c1ccc(=O)[nH]c1 [CHEMBL4455684]
Actual pChEMBL [1, 3]: 7.55

CCOc1cc2c(N[C@H](C)c3ccc(F)cc3)nc(C)nc2cn1 [CHEMBL4456281]
Actual pChEMBL ([1]; Table 3): 5.03 | IC50 ([1]; Table 3): 9.3 µM

COc1cc2nc(C)nc(N[C@H](C)c3cccc(C(F)(F)F)c3F)c2cc1C1(O)CCC(C(=O)N(C)C)CC1 (some centres unmarked) [CHEMBL4459389]
Actual pChEMBL [1, 3]: 8.30

CC(=O)N[C@@H]1CCN(c2cc3c(NC(C)c4ccc(-c5ccccc5CN(C)C)s4)nc(C)nc3cn2)C1 (some centres unmarked) [CHEMBL4463000]
Actual pChEMBL ([1]; Table 3): 7.82 | IC50 ([1]; Table 3): 0.015 µM

Cc1cccc([C@@H](C)Nc2nc(C)nc3ccc([C@H]4CC[C@H](C(=O)N5CC(C#N)C5)CC4)cc23)c1 [CHEMBL4463184]
Actual pChEMBL [1, 3]: 7.44

CONC(=O)CC(C)c1cc2c(N[C@H](C)c3cccc(C(F)(F)F)c3)nc(C)nc2cc1C (some centres unmarked) [CHEMBL4464090]
Actual pChEMBL [1, 3]: 8.10

COCC(=O)N1CCC(c2ccc3nc(C)nc(N[C@H](C)c4cc(N)cc(C(F)(F)F)c4)c3c2)CC1 [CHEMBL4469357]
Actual pChEMBL [1, 3]: 8.70

Cc1cccc([C@@H](C)Nc2nc(C)nc3cc(C)c(-c4ccc(=O)n(C)c4)cc23)c1 [CHEMBL4473214]
Actual pChEMBL [1, 3]: 7.44

COCCN(C)C(=O)C1CCC(c2cc3c(N[C@H](C)c4cc(N)cc(C(F)(F)F)c4)nc(C)nc3cc2OC)CC1 (some centres unmarked) [CHEMBL4513254]
Actual pChEMBL [1, 3]: 8.52

COc1cc2nc(C)nc(N[C@H](C)c3cccc(C(F)(F)F)c3)c2cc1-c1ccc(C(=O)N(C)C)cn1 [CHEMBL4515122]
Actual pChEMBL [1, 3]: 7.46

CC(=O)N1CCC(O)(c2ccc3nc(C)nc(N[C@H](C)c4cccc(C)c4)c3c2)CC1 [CHEMBL4524954]
Actual pChEMBL [1, 3]: 7.85

COc1cc2nc(C)nc(N[C@H](C)c3cccc(C(F)(F)CO)c3)c2cc1C1=CCC(C(=O)N(C)C)CC1 (some centres unmarked) [CHEMBL4529467]
Actual pChEMBL [1, 3]: 8.70

Cc1nc(N[C@H](C)c2cccc(C(F)(F)F)c2)c2cc([C@]3(O)CC[C@H](C(=O)N(C)C)CC3)ccc2n1 [CHEMBL4533487]
Actual pChEMBL [1, 3]: 7.57

Cc1nc(N[C@H](C)c2cc(N)cc(C(F)(F)F)c2)c2cc(C3CCN(C(=O)CN(C)C)CC3)ccc2n1 [CHEMBL4539190]
Actual pChEMBL [1, 3]: 8.52

Cc1nc(N[C@H](C)c2cc(N)cc(C(F)(F)F)c2)c2cc(C3CCC(C(=O)N4CCOCC4)CC3)ccc2n1 (some centres unmarked) [CHEMBL4540213]
Actual pChEMBL [1, 3]: 8.70

CCOc1cc2c(N[C@H](C)c3ccccc3)nc(C)nc2cn1 [CHEMBL4545109]
Actual pChEMBL ([1]; Table 3): 5.69 | IC50 ([1]; Table 3): 2.06 µM

Cc1nc(N[C@H](C)c2cc(N)cc(C(F)(F)F)c2)c2cc(-c3cnn(CC(=O)N(C)C)c3)ccc2n1 [CHEMBL4546387]
Actual pChEMBL [1, 3]: 8.10

CCn1ccc(-c2cc3c(N[C@H](C)c4cc(N)cc(C(F)(F)F)c4)nc(C)nc3cc2C)cc1=O [CHEMBL4551748]
Actual pChEMBL [1, 3]: 8.30

Cc1nc(N[C@H](C)c2cc(N)cc(C(F)(F)F)c2)c2cc([C@H]3CC[C@H](C(=O)N(C)C)CC3)c(C)cc2n1 [CHEMBL4554249]
Actual pChEMBL [1, 3]: 8.70

Cc1cccc([C@@H](C)Nc2nc(C)nc3ccc(C4CC[S+]([O-])CC4)cc23)c1 (some centres unmarked) [CHEMBL4561965]
Actual pChEMBL [1, 3]: 7.66

Cc1nc(N[C@H](C)c2cccc(C(F)(F)F)c2)c2cc(-c3cc4n(n3)CCC(=O)N4)ccc2n1 [CHEMBL4570224]
Actual pChEMBL [1, 3]: 7.52

COc1cc2nc(C)nc(N[C@H](C)c3cc(N)cc(C(F)(F)F)c3F)c2cc1O[C@H]1CCOC1 [CHEMBL4572076]
Actual pChEMBL [1, 3]: 8.30

COc1cc2nc(C)nc(N[C@H](C)c3cc(N)cc(C(F)(F)F)c3F)c2cc1C1CCC(C(=O)N(C)C)CC1 (some centres unmarked) [CHEMBL4572922]
Actual pChEMBL [1, 3]: 7.46

Cc1cccc([C@@H](C)Nc2nc(C)nc3ccc(C4CCOCC4)cc23)c1 [CHEMBL4583745]
Actual pChEMBL [1, 3]: 7.37

COc1cc2nc(C)nc(N[C@H](C)c3cccc(C(F)(F)F)c3)c2cc1OC [CHEMBL5084571]
Actual pChEMBL ([1]; Table 3): 6.97 | IC50 ([1]; Table 3): 0.106 µM

COc1cc2nc(C)nc(N[C@H](C)c3cccc(S(N)(=O)=O)c3)c2cc1OC [CHEMBL5085531]
Actual pChEMBL ([1]; Table 3): 7.25 | IC50 ([1]; Table 3): 0.056 µM

COc1cc2nc(C)nc(N[C@H](C)c3ccccc3)c2cc1OC [CHEMBL5087955]
Actual pChEMBL ([1]; Table 3): 6.34 | IC50 ([1]; Table 3): 0.453 µM

CCC(C)NC(=O)c1ccc(Cn2c(=O)c3cc(OC)c(OC)cc3n(Cc3ccccc3F)c2=O)cc1 (centres unmarked) [CL00817024]
inhibition at 25 µg/mL [2]: 2 ± 0.8%

CCOCCCN(C)C1CCN(c2ncc(NC(=O)c3ccc(C)cc3)cc2C(=O)O)CC1 [CL00838284]
inhibition at 25 µg/mL [2]: 25.3 ± 0.3%

CC(C)c1cccc2cc3c(nc12)OCCN(CCc1ccc2c(c1)OCO2)C3 [CL01132463]
inhibition at 25 µg/mL [2]: -6.5 ± 2.5%

Cc1ccc(S(=O)(=O)Nc2cnc(N3CCCC3)c(C(=O)O)c2)c(C)c1 [CL01545355]
IC50 [2, 4]: 94.6 µM | IC50 [2, 5]: 94.6 µM | inhibition at 0.5 µg/mL [2]: -1.6 ± 0.2% | inhibition at 10 µg/mL [2]: 17.9 ± 3.3% | inhibition at 40 µg/mL [2]: 53.3 ± 0.5% | inhibition at 50 µg/mL [2]: 61.6 ± 4% | inhibition at 25 µg/mL [2]: 38 ± 3.3%

CC(C)c1ccc(S(=O)(=O)Nc2cnc(N3CCCC3)c(C(=O)O)c2)cc1 [CL01545365]
IC50 [2, 4]: 53.7 µM | IC50 [2, 5]: 53.7 µM | inhibition at 0.5 µg/mL [2]: 0.8 ± 1.1% | inhibition at 10 µg/mL [2]: 31.9 ± 2.8% | inhibition at 40 µg/mL [2]: 66.6 ± 0.1% | inhibition at 50 µg/mL [2]: 72.3 ± 2.7% | inhibition at 25 µg/mL [2]: 53.8 ± 1.6%

Cc1ccc(S(=O)(=O)Nc2cnc(N3CC=C(c4ccccc4C)CC3)c(C(=O)O)c2)c(C)c1 [CL01545444]
IC50 [2, 4]: 103 µM | IC50 [2, 5]: 103 µM | inhibition at 0.5 µg/mL [2]: 1.5 ± 1.1% | inhibition at 10 µg/mL [2]: 14.5 ± 3.3% | inhibition at 40 µg/mL [2]: 45.5% | inhibition at 50 µg/mL [2]: 49.9 ± 0.5% | inhibition at 25 µg/mL [2]: 31.1 ± 1.4%

Cc1ccccc1C1=CCN(c2ncc(NS(=O)(=O)c3ccc(C(C)C)cc3)cc2C(=O)O)CC1 [CL01545464]
IC50 [2, 4]: 66.3 µM | IC50 [2, 5]: 66.3 µM | inhibition at 0.5 µg/mL [2]: 3.4 ± 1.8% | inhibition at 10 µg/mL [2]: 24.2 ± 1.4% | inhibition at 40 µg/mL [2]: 55.3 ± 3.2% | inhibition at 50 µg/mL [2]: 60.5 ± 4% | inhibition at 25 µg/mL [2]: 42.9 ± 3.4%

Cc1nc(N[C@H](C)c2cccc(C(F)F)c2F)c2cc3c(cc2n1)OC[C@H]1CN(C(=O)C2(C#N)CC2)CCN31 [compound 37]
Actual pChEMBL value ([1]; external validation data): 8.33
